{
  "source": "ChEMBL document CHEMBL1146640",
  "about": "“A new 2-carbamoyl pteridine that inhibits mycobacterial FtsZ” (2004)",
  "key": {"[1]": {"tested_on": "Mycobacterium tuberculosis", "assay": "Compound was tested for inhibition of GTP hydrolysis at a concentration of 100 uM in Mycobacterium tuberculosis (Mtb)", "format": "functional"}, "[2]": {"tested_on": "Mycobacterium tuberculosis", "assay": "In vitro minimum inhibitory concentration (MIC) towardsMtb H37Ra was determined using a colorimetric (Alamar blue) microdilution broth assay", "format": "functional"}, "[3]": {"tested_on": "Tubulin alpha chain (Homo sapiens)", "assay": "Percentage inhibition against human tubulin polymerization"}, "[4]": {"tested_on": "Mycobacterium tuberculosis", "assay": "Inhibitory dose required against Mycobacterium tuberculosis FtsZ polymerization", "format": "functional", "details": "read-out: ID50 (the source's name)"}, "[5]": {"molecular_target": "Tubulin alpha chain (Sus scrofa) (UniProt P02550)", "sequence (P02550 whole entry, looked up)": "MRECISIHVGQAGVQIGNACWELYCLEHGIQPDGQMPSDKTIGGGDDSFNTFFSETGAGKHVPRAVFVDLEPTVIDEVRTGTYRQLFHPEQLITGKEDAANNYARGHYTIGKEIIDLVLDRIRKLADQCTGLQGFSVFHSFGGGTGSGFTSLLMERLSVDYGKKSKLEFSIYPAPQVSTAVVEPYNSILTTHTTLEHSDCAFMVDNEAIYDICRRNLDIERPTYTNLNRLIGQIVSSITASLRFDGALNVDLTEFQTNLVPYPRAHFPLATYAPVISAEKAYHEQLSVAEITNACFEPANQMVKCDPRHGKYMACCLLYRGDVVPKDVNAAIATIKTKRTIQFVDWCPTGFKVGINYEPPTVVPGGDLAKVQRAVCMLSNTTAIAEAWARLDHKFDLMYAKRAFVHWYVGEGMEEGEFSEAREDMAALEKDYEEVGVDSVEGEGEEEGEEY", "assay": "Percentage inhibition against human tubulin polymerization", "format": "functional", "details": "concentration not given here"}},
  "data": [
    {"molecule": "CCOC(=O)Nc1cc(NC(C)CCCN(CC)CC)c2nc(-c3ccccc3)c(-c3ccccc3)nc2n1", "note": "(stereo not drawn)", "values": [
      {"measurement": "Hydrolysis", "setting": "[1]", "value": 35, "unit": "%"},
      {"measurement": "MIC", "setting": "[2]", "value": "> 0.25", "unit": "µg/mL"},
      {"measurement": "inhibition", "setting": "[3]", "value": "No inhibition"},
      {"measurement": "IC50", "setting": "[4]", "value": 34.2, "unit": "µM"}
    ]},
    {"molecule": "CCOC(=O)Nc1nc(NC(C)CCCN(CC)CC)c2nc(-c3ccccc3)c(-c3ccccc3)nc2n1", "note": "(stereo not drawn)", "values": [
      {"measurement": "Hydrolysis", "setting": "[1]", "value": 23, "unit": "%"},
      {"measurement": "MIC", "setting": "[2]", "value": 2, "unit": "µg/mL"},
      {"measurement": "inhibition", "setting": "[5]", "value": 24, "unit": "%"},
      {"measurement": "IC50", "setting": "[4]", "value": 38.1, "unit": "µM"}
    ]}
  ]
}
